From PMC10295897, “A Novel MDM2-Binding Chalcone Induces Apoptosis of Oral Squamous Cell Carcinoma” (Biomedicines, 2023) come the findings set out here.

One data set has as its system HCT-116 (colon cancer). In words: MTT cell viability assay, HCT-116. The format is cell-based. Here is the method: The viability of SCC cell lines, HT-29, HCT-116, HEP2G and primary human fibroblast cells was evaluated using the MTT assay as in [26]. Briefly, the cells were grown in duplicates in 96-well plates (5 × 10^3 cells/well) until confluence. Then, the medium was removed, fresh medium was added, and the cells were returned to the incubator in the presence of different compounds. DMSO at the same concentrations was used as a 100% cell viability control. After 48 h, the cells were incubated with 5 mg/mL MTT reagent (3-(4,5-dimethyl-2-thiazolyl)-2,5-diphenyl-2-H-tetrazolium bromide) (Sigma-Aldrich Co., St. Louis, MO, USA) for 3.5 h. After that, formazan crystals were dissolved in MTT solvent solution (DMSO/methanol 1:1 v/v), and the absorbance at 560 nm was evaluated using an EPOCH microplate spectrophotometer (BioTek Instruments, Winooski, VT, USA) with the background absorbance at 670 nm subtracted. […]
The data are presented as means ± SD. […] The selectivity index was calculated as SI = IC50 of the compound in normal oral fibroblast cells/IC50 of the same compound for each cancer cell line (SCC-4, SCC-9, SCC-25, HCT-116, HT29 and HEP2G), and the mean was calculated when indicated.
Background: Tetrazolium assays rely on reduction of a dye to a coloured formazan, in cell work by metabolically active cells.

Data set [1] concerns Primary Gingival Fibroblast (HGF). In words: MTT cell viability assay, primary normal gingival fibroblasts. The format is cell-based, human. The note with it: Homo sapiens, Fibroblast, 48 h. Here is the method:
Human SCC-4, SCC-9, and SCC-25 cells derived from a human oral tongue SCC (squamous cell carcinoma) were obtained from the ATCC (CRL-1624, CRL-1629, and CRL-1628, respectively) and maintained in 1:1 DMEM/F12 (Dulbecco’s modified Eagle medium and Ham’s F12 medium; Gibco (Thermo Fisher, Waltham, MA, USA)) supplemented with 10% (v/v) FBS (fetal bovine serum; Invitrogen, Thermo Fisher, Waltham, MA, USA) and 400 ng/mL hydrocortisone (Sigma-Aldrich Co., St. Louis, MO, USA). Primary normal human gingival fibroblasts were obtained from the ATCC (PCS-201-018; HGF) and maintained in DMEM supplemented with 10% (v/v) FBS and were used in a maximum of six passages. The cells were grown in a humidified environment containing 5% CO2 at 37 °C. For all biological experiments, the compounds and control nutlin 3a were solubilized in 100% DMSO (all Sigma-Aldrich) to a final concentration of 10 mM. Carboplatin stock was prepared in water (Fauldcarbo®; LibbsFarmacêutica, São Paulo, SP, Brazil) and was used as a standard anticancer compound.
(§1) The viability of SCC cell lines, HT-29, HCT-116, HEP2G and primary human fibroblast cells was evaluated using the MTT assay as in [26]. Briefly, the cells were grown in duplicates in 96-well plates (5 × 10^3 cells/well) until confluence. Then, the medium was removed, fresh medium was added, and the cells were returned to the incubator in the presence of different compounds. DMSO at the same concentrations was used as a 100% cell viability control. After 48 h, the cells were incubated with 5 mg/mL MTT reagent (3-(4,5-dimethyl-2-thiazolyl)-2,5-diphenyl-2-H-tetrazolium bromide) (Sigma-Aldrich Co., St. Louis, MO, USA) for 3.5 h. After that, formazan crystals were dissolved in MTT solvent solution (DMSO/methanol 1:1 v/v), and the absorbance at 560 nm was evaluated using an EPOCH microplate spectrophotometer (BioTek Instruments, Winooski, VT, USA) with the background absorbance at 670 nm subtracted. Each of the six compounds was tested at six or seven different concentrations, ranging from 0.3 µM to 200 µM in cancer cell lines (SCC-4, SCC-9 and SCC-25) and 0.3 µM to 200 µM in primary normal human gingival fibroblasts. Controls (carboplatin, nutlin 3a) were tested at six or seven different concentrations ranging from 0.05 µM to 1000 µM in cancer cells and normal cells, depending on the compound.
(§2) The data are presented as means ± SD. IC values for the MTT assays were obtained by nonlinear regression using the […] 5.0 program (Intuitive Software for Science, San Diego, CA, USA) from at least three independent experiments. A dose–response (inhibitor) vs. response curve using the least squares method was used to determine the IC50, SD, and R^2 of the data. The selectivity index was calculated as SI = IC50 of the compound in normal oral fibroblast cells/IC50 of the same compound for each cancer cell line (SCC-4, SCC-9, SCC-25, HCT-116, HT29 and HEP2G), and the mean was calculated when indicated.

The next data set has as its system HT29 (adenocarcinoma). In words: MTT cell viability assay, HT29. It is filed as cell-based. Here is the method: as §1, §2
The next data set has as its system C57BL/6 female mice. In words: In vivo acute toxicity study. As to conditions: for Gross Necropsy: day 14. Here is the method: The acute toxicity study for compound 1f was performed as in the work of Macedo et al., 2019 [24]. The assay was approved by the University Animal Ethics Board under registration number 2699110419, in accordance with Brazilian guidelines and regulations. Dosing and analysis were performed according to OECD guidelines 423 and revised by Parasuraman. The test was performed in 12-week-old C57BL/6 female mice via intraperitoneal injection. Each animal group had n = 3 and received only one intraperitoneal injection (Day 0) of compound 1f dissolved in […] PBS and 3% DMSO. The control group animals received only 3% DMSO in PBS. The first dose of the compound was 25 mg/kg; subsequent dose levels (50 mg/kg and 100 mg/kg) were determined based on the result obtained from the previous dosing. The animals were examined every day, twice a day, for mortality and morbidity for 14 days. At day 14, all animals were anesthetized (ketamine 100 mg/kg and xylazine 10 mg/kg) followed by cervical dislocation. The gross necropsy and histology of the main organs were performed. Body weight and average food consumption were measured every 7 days as an indication of morbidity, and the following signs were assessed: tremors; convulsion; salivation; diarrhea; lethargy; pain signs; increased rear arching; and defect in mobility. The necropsy included an examination of the external characteristics of the carcass; external body orifices; the abdominal, thoracic, and cranial cavities; and organs/tissues—liver, thymus, right kidney, right testicle, heart, and lung.

A further data set can be described thus: Hemolysis assay. The format is cell-based. The note with it: human erythrocytes; vs Triton X-100 = 100%; 300 µM (method) / 500 µM (Figure 2). Here is the method: To determine the surfactant power of substances in biological membranes, a hemolysis assay was performed using human blood approved by the Research Ethics Committee of Universidade Federal Fluminense (CAAE: 43134721.4.0000.5626). Erythrocytes were collected by centrifugation at 1500 rpm for 15 min, washed with PBS (phosphate-buffered saline) supplemented with 10 mM glucose, and counted in an automatic cell counter (Thermo Fisher, Waltham, MA, USA). Erythrocytes were then plated in 96-well plates at a concentration of 4 × 10^8 cells/well in triplicates, and 10 µL of compounds was added at a final concentration of 300 µM in PBS with glucose (final volume 100 µL). In total, 10 µL of PBS was used as a negative control and 10 µL of PBS with 0.1% Triton X-100 as a positive control. Data reading was performed with EPOCH (BioTek Instruments, Winooski, VT, USA) at an absorbance of 540 nm, and the statistical data were generated using the […] Prism 5.0 program (Intuitive Software for Science, San Diego, CA, USA).

The term pIC50 denotes the IC50 on a negative log10 scale, so that one unit is a factor of ten. Higher therefore signals a small IC50.

pIC50: −log10 of the molar value.

`Cc1cccc(C)c1-n1cc(/C=C/C(=O)c2ccccc2N)nn1` [1f, (E)-1-(2-Aminophenyl)-3-(1-(2,6-dimethylphenyl)-1H-1,2,3-triazol-4-yl)prop-2-en-1-one]: the pIC50 was 5.40 with HCT-116 (colon cancer) (Homo sapiens, HCT-116, 48 h, MTT); 4.53 in data set [1]; 5.41 in the data set with HT29 (adenocarcinoma) (Homo sapiens, HT-29, 48 h, MTT). In the data set with HCT-116 (colon cancer) (IC50 HGF / IC50 HCT-116), the “HCT-116 S.I.” value amounted to 7.41. Besides, in the data set on HT29 (adenocarcinoma) (IC50 HGF / IC50 HT29), the “HT29 S.I.” value was determined as 7.55. Further, the “Change in body weight” value in the data set on C57BL/6 female mice (25 mg/kg single i.p., 14 days) was “Absent”; in the data set on C57BL/6 female mice (50 mg/kg single i.p., 14 days), “Absent”; in the data set on C57BL/6 female mice (100 mg/kg single i.p., 14 days), “Absent”. The Morbidity entry with C57BL/6 female mice (25 mg/kg single i.p., 14 days) was “Absent”; in the data set with C57BL/6 female mice (50 mg/kg single i.p., 14 days) it was “Absent”; in the data set on C57BL/6 female mice (100 mg/kg single i.p., 14 days), “Absent”. The “Gross Necropsy” value in the data set on C57BL/6 female mice (25 mg/kg single i.p.), in the data set with C57BL/6 female mice (50 mg/kg single i.p.) and in the data set with C57BL/6 female mice (100 mg/kg single i.p.) was “No alteration” throughout. For the same compound, the “animal weight compared to control group” value in the data set on C57BL/6 female mice (25, 50, 100 mg/kg i.p., 14 days) was “no significant change in animal weight”. In addition, in the data set on C57BL/6 female mice (all groups (25, 50, 100 mg/kg i.p.)), the “food consumption, second week” value was “no noticeable difference in food consumption”. In the data set with C57BL/6 female mice (all treated groups (25, 50, 100 mg/kg i.p.), more significant at 100 mg/kg), the “food intake, first week” value is “reduction in food intake”. The hemolysis at 300 µM in “Hemolysis assay” was below 2%.
